# Experimental data reported in patent US7524973B2, “Nitrate esters of phenylaminothiophenacetic acid derivatives” (Altana Pharma AG, priority 2003, dated 2009).
# Columns and labels:
# [1] = target: T1, COX-1 (Homo sapiens, UniProt P23219); assay: In vitro Cox-1 assay (whole blood, TxB2); format: cell-based; details: fresh blood without anticoagulant, clotting 1 h at 37° C., TxB2 immunoassay; read-out: Inhibition of COX-1 activity [measured as pIC50] (converted)
# T1 construct: Fresh blood was collected into vacutainers containing no anticoagulants; from tissue; host or cells: fresh whole blood without anticoagulant, allowed to clot
# Description: Fresh blood was collected into vacutainers containing no anticoagulants. Aliquots of 450 μl were immediately transferred to deep well plates preloaded with 1 μl of either DMSO or a test compound at final concentration of 100 μM-10 nM. In addition 50 μl of Hydroxylamine/PBS were added and the tubes were vortexed and incubated at 37° C. for 1 h to allow the blood to clot. At the end of incubation, serum was obtained by centrifugation (2000 g/5 min) and the supernatant was assayed for TxB2 using a immunoassay kit (RD Systems, Germany) according to the manufactures instruction.
# (§1) The data were analysed from 2-3 independent dose response curves with a nonlinear estimation program using GRAPHPAD/Prism and given as pIC50
# [2] = target: T2, COX-2 (Homo sapiens, UniProt P35354); assay: In vitro Cox-2 assay (LPS-stimulated whole blood, PGE2); format: cell-based; details: heparinized blood, LPS 24 h, PGE2 immunoassay; read-out: Inhibition of COX-2 activity [measured as pIC50] (converted)
# T2 construct: Fresh blood was collected in heparinized (8 U/ml, Roche, Switzerland) tubes; from tissue; host or cells: heparinized fresh whole blood stimulated with LPS for 24 h
# T2 sequence (P35354 18-604): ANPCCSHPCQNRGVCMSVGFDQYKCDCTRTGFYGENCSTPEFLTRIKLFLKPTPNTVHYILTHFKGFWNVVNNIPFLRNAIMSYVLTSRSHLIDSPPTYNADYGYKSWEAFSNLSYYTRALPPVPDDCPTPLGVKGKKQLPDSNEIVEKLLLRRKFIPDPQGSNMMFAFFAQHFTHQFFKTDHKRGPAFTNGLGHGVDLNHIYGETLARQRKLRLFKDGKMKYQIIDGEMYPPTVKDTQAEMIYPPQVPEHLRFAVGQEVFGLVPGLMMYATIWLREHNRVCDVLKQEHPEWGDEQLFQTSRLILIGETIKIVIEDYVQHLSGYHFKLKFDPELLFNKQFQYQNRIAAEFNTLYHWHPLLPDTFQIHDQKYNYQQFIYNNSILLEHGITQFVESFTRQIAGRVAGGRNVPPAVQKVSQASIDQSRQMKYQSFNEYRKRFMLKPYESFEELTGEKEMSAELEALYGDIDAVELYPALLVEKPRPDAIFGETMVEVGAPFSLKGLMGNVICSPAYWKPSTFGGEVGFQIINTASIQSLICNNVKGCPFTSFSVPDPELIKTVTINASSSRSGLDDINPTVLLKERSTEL
# Description: Fresh blood was collected in heparinized (8 U/ml, Roche, Switzerland) tubes by venipuncture from both male and female volunteers with consent The subjects had no apparent inflammatory conditions and had not taken any NSAIDs for the last 7 days prior to blood collection. 450 μl aliquots of blood were incubated in deep wells with either 1 μl vehicle (DMSO) or 1 μl of test compound at a final concentration varying from 100 μM-10 nM for 15 min at 37° C. This was followed by incubation of the blood with 50 μl lipopolysaccharide (LPS, Sigma, Germany) 10 μg/ml in 0.1% Hydroxylamine/PBS (Sigma) for 24 h. At the end of incubation the blood was centrifuged at 2000 g for 5 min and […] supernatant was assayed for PGE2 using a immunoassay kit (RD Systems, Germany )
# as §1
# T1 sequence (P23219 24-599): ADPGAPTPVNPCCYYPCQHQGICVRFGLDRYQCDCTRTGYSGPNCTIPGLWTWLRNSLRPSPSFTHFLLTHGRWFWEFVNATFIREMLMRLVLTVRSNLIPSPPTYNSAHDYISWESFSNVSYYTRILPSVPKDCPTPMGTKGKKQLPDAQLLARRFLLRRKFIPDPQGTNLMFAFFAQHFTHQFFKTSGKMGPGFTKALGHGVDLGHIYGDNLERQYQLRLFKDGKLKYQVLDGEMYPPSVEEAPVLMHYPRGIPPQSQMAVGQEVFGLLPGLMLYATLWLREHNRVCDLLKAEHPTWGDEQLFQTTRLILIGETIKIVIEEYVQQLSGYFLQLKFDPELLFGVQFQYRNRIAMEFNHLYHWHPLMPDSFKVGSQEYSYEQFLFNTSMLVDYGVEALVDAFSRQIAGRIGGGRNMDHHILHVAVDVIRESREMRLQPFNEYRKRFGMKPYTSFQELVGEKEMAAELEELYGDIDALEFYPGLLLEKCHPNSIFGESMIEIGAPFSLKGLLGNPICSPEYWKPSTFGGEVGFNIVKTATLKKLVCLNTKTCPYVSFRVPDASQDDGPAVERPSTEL
smiles,measurement,setting,value
"O=C(Cc1cscc1Nc1c(Cl)cccc1Cl)OCCCCO[N+](=O)[O-] [Compound 1, [4-(2,6-Dichlorophenylamino)-thiophen-3-yl]-acetic acid 4-nitrooxybutyl ester]",IC50,[1],89.1 nM
same,IC50,[2],72.4 nM
